Assay results from article PMC11618052, “Design, synthesis, and antiproliferative activity of new 1,2,3-triazole/quinazoline-4-one hybrids as dual EGFR/BRAF^V600E inhibitors” (RSC Advances, 2024).

Legend:
colon cancer (HT-29) = experiment: Antiproliferative MTT assay, HT-29; format: cell-based; conditions: Homo sapiens, HT-29 colon cancer cells, read-out: Antiproliferative activity IC50 ± SEM, HT-29
Procedure: (§1) The median inhibitory concentration (IC50) and GI50 (mean IC50) for the four cancer cell lines were calculated. Appendix A ^† contains more details. […]

lung cancer (A-549) = experiment: Antiproliferative MTT assay, A-549; format: cell-based; conditions: Homo sapiens, A549, A-549 lung cancer cells, read-out: Antiproliferative activity IC50 ± SEM, A-549
Procedure: as §1

EGFR = molecular target: T1, EGFR (Homo sapiens, UniProt P00533); experiment: EGFR-TK inhibitory assay; format: biochemical; conditions: read-out: EGFR inhibition IC50 ± SEM
T1 construct: 645–1186; His6 (N); made in house; host or cells: Sf-9 insect cells (baculovirus; pBlueBacHis2B / pFASTBacHTc)
Procedure: Sf-9 cells were infected for 72h for protein expression. […]
centrifugation for 20 min.
Histidine-linked proteins were first eluted with 250 and then […]
using wash buffer. Europium-tagged antiphosphotyrosine antibody (75 µL, 400 ng) was added to each well followed by incubation of 1h and then washing of the plates using buffer. The enhancement solution was added to each well and the signal was recorded at excitation and […]
The autophosphorylation percentage inhibition by compounds was calculated using the following equation: […]

[1] = system: four human cancer cell lines (A-549, MCF-7, Panc-1, HT-29); experiment: Antiproliferative MTT assay, mean over the four cancer cell lines; format: cell-based; conditions: Homo sapiens, mean IC50 over A-549, MCF-7, Panc-1, HT-29
Procedure: as §1

BRAF^V600E = BRAF^V600E kinase inhibitory assay
Procedure: V600E mutant BRAF kinase assay was performed to investigate the activity of tested compounds against BRAF. Mouse full-length GST-tagged BRAFV600E (7.5 ng, Invitrogen, PV3849) was pre-incubated with drug (1 µL) and assay dilution buffer (4 µL) for 60 min at 25 °C. In assay dilution buffer, a solution (5 µL) containing MgCl2 (30 mM), ATP (200 µM), recombinant human full length (200 ng) and N-terminal His-tagged MEK1 (Invitrogen) was added to start the assay, subsequent to incubation for 25 min at 25 °C. The assay was stopped using 5X protein denaturing buffer (LDS) solution (5 µL). To further denature the protein, heat (70° C) was applied for 5 min.
10 µL of each reaction was loaded into the precast plates and electrophoresis was allowed to proceed. After completion of electrophoresis, the front part of the precast gel plate (holding hot ATP) was cut and afterwards cast-off. The dried gel was developed using a phosphor screen. A

[2] = system: pancreatic cancer (Panc-1); experiment: Antiproliferative MTT assay, Panc-1; format: cell-based; conditions: Homo sapiens, Panc-1 pancreatic cancer cells, read-out: Antiproliferative activity IC50 ± SEM, Panc-1
Procedure: as §1

[3] = Cell viability MTT assay on MCF-10A normal cells; format: cell-based; conditions: human, MCF-10A normal mammary gland epithelial cells, MCF-10A cells, four days of incubation
Procedure: The viability of new compounds 8a–t was evaluated using the MCF-10A normal human mammary gland epithelial cell line. The cell viability of compounds 8a–t was examined using the MTT assay[36] after four days of incubation with MCF-10A cells. For more details, see Appendix A (ESI file). ^† […]
We evaluated the viability of new compounds 8a–t using the MCF-10A normal human mammary gland epithelial cell line. The cell viability of compounds 8a–t was examined using the MTT assay[36] after four days of incubation with MCF-10A cells.
4.2. Biological evaluation
4.2.1. Cytotoxic activity using MTT Assay and evaluation of IC 50
MTT assay was carried out to study the effect of compounds on mammary epithelial cells (MCF-10A). The medium in which cells were propagated contained Dulbecco's modified Eagle's medium (DMEM)/ Ham's F-12 medium (1:1) supplemented with epidermal growth factor (20 ng/mL), hydrocortisone (500 ng/mL), insulin (10 μg/mL), 2 mM glutamine and 10% foetal calf serum.
After every 2-3 days, the cells were passaged using trypsin ethylenediamine tetra acetic acid (EDTA). The cells were seeded at a density of 10^4 cells mL-1 in flat-bottomed culture plates containing 96 wells each. After 24 h, medium was removed from the plates and the compounds in (in 0.1% DMSO) were added (in 200 μL medium to yield a final concentration of 0.1% v/v) to the wells of plates. A single compound was designated with four wells followed by incubation of plates for 96h at 37°C. After incubation, medium was removed completely from the plates followed by addition of MTT (0.4 mg/mL in medium) to each well and subsequent incubation of plates for 3h. MTT (along with the medium) was removed and DMSO (150μL) was added to each well of the culture plates, followed by vortexing and subsequent measurement of absorbance (at 540 nm) using microplate reader. The data are shown as percentage inhibition of proliferation in comparison with controls containing 0.1% DMSO. […]

A-549 cells [4] = experiment: Apoptosis induction assay, annexin V/PI, in A-549; format: cell-based, human; conditions: A-549, annexin V/PI, 24 hours
Procedure: (§2) The impact of compound 8g on cell cycle progression and apoptosis induction was examined in A-549 cells. […] We stained the cell line with PI/annexin V and performed flow cytometry using a BD FACS Caliber.[41] Refer to Appendix A ^† for more details.
A-549 cells was stained with annexin V/PI, cultured for 24 hours, and analyzed them to examine 8g's capacity to cause apoptosis.
Avoid direct exposure to intense light. The point, at which the substrate reaction is stopped, is often determined by the ELISA reader. Many ELISA readers record absorbance only up to 2.0
O.D. Therefore, the color development within individual microwells must be watched by the person running the assay and the substrate reaction stopped before positive wells are no longer properly detectable. […] Results must be read immediately after the Stop Solution is added or within one hour if the microwell strips are stored at 2 - 8°C in the dark. Read absorbance of each microwell on a spectrophotometer using 450 nm as the primary wavelength. […]
Apoptosis was determined by flow cytometry based on the Annexin-V-fluoresce in isothiocyanate (FITC) and propidium iodide (PI) staining kit (BD Pharmingen, San Diego, USA).
(FITC) and propidium iodide (PI) staining kit (BD Pharmingen, San Diego, USA). […] Subsequently, cells were analyzed by flow cytometry (Becton Dickinson, Franklin Lakes, and USA).

A-549 cells [5] = experiment: Cell cycle analysis by flow cytometry in A-549; format: cell-based, human; conditions: A-549, IC50 concentration of 8g, 24 hours
Text: as §2
The effects of 8g on cell cycle progression and apoptosis induction in A-549 cells were examined. […] We stained the cell line with PI/annexin V and performed flow cytometry using a BD FACS Caliber.[41] […] This means a cell cycle arrest at the G1 transition.

T1 sequence (P00533 669-1210): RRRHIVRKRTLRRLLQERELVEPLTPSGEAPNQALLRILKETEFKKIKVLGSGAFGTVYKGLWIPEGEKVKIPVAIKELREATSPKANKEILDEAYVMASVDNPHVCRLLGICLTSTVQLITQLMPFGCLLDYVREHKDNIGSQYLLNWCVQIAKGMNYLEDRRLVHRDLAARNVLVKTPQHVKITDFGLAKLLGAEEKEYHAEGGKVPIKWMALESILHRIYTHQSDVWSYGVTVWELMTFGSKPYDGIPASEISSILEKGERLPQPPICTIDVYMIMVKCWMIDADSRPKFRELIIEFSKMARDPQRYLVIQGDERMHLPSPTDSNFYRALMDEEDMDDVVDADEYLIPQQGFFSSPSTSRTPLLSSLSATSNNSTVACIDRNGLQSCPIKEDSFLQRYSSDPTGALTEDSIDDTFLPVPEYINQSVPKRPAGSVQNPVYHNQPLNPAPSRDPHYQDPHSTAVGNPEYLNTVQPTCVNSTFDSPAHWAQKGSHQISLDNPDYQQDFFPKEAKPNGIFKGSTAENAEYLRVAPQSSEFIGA
Chain of BRAF^V600E (P28028 whole entry V585E): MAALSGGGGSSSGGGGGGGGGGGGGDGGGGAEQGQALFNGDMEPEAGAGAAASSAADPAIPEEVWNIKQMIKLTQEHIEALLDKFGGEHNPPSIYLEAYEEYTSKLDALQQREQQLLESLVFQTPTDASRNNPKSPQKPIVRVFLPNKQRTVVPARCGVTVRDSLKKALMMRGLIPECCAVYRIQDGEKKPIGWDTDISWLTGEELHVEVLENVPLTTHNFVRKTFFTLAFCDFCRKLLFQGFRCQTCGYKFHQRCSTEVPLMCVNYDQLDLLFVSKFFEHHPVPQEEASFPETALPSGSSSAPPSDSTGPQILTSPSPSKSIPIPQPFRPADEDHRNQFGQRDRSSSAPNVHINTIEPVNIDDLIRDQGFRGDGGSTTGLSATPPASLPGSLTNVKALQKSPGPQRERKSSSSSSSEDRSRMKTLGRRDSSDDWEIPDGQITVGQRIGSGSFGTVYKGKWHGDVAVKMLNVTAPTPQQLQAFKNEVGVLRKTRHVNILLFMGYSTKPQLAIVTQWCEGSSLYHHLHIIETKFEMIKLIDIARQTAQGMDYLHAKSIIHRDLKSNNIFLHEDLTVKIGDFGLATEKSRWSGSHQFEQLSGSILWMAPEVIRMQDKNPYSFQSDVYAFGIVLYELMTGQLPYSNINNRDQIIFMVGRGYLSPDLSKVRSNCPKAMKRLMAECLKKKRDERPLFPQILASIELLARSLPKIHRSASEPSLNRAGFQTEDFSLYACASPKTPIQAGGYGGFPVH

Row | Compound | IC50 (colon cancer (HT-29)) [nM] | IC50 (lung cancer (A-549)) [nM] | IC50 (EGFR) [nM] | GI50 [1] [nM] | IC50 (BRAF^V600E) [nM] | IC50 [2] [nM] | viability at 4 days, 50 µM [3] [%] | Necrosis percentage (A-549 cells [4]) [%] | Cells in G0/G1 phase (%DIP G1) (A-549 cells [5]) [%]
1 | Cc1ccc(-n2cc(CSc3nc4ccccc4c(=O)n3-c3ccc(C)cc3)nn2)cc1 [Compound 8h, 2-(((1-(p-Tolyl)-1H-1,2,3-triazol-4-yl)methyl)thio)-3-(p-tolyl)quinazolin-4(3H)-one] | 27 ± 1 | 25 ± 1 | 74 ± 5 | 25 | 55 ± 5 | 26 ± 1 | 92 |  | 
2 | COc1ccc(-n2cc(CSc3nc4ccccc4c(=O)n3-c3ccc(C)cc3)nn2)cc1 [Compound 8g, 2-(((1-(4-Methoxyphenyl)-1H-1,2,3-triazol-4-yl)methyl)thio)-3-(p-tolyl)quinazolin-4(3H)-one] | 24 ± 1 | 22 ± 1 | 68 ± 4 | 22 | 47 ± 3 | 24 ± 1 | 88 | 4.39 | 86
